# Measured values reported in patent publication EP4706404A1, “MICROENCAPSULATED NATURAL PRESERVATIVE AND ANTIOXIDANT FOR FATTY FOODS, WITH WALNUT HUSK AND WALNUT TREE LEAF EXTRACT” (Universidad Andres Bello, priority 2023, dated 2024).
# Like-named read-outs stand apart in the source and are kept apart here.
# Experiments:
# [1] = system: Caco-2 cells
# [2] = system: HEPG-2
# Method: The test consisted of evaluating the cytotoxic effect of walnut husk and leaf extract, in different concentrations, on viability in cell culture. For this, the HEPG-2 line was used as a cell matrix, which are immortalized human liver cells.
# To evaluate the effect on viability in cell culture, an assay was performed with the Invitrogen MTT kit (Ref.V13154; lot:1924421), whose technique consists of a colorimetric analysis that measures the metabolic activity of the cell. This assay was carried out following the protocol provided by the kit supplier, using a 96-well plate with HEPG-2 cell culture with an approximate confluence of 80%. Taking the cytotoxic compound SDS 0.2% as a positive control and the cell culture with its medium as a negative control.
# [3] = system: S. aureus; details: mayonnaise
# [4] = system: Salmonella; details: mayonnaise
# From the text: (§1) Mayonnaise was made on a laboratory scale using mayonnaise powder, the flowchart is shown in Diagram 3. [formula]
# (§2) Where the stability of mayonnaise without any antioxidant (control) was studied, the stability when using a frequently used synthetic antioxidant such as EDTA, and a microparticle of the invention for foods with more than 70% fat, which corresponds to Maltodextrin with capsule as a channeling agent (EH:MD-Capsule). The dose used was in accordance with the food safety regulations (FSR) and corresponded to 5.5 g of microparticles per 2 kilos of mayonnaise. […] Table 9. Mayonnaise formulation for stability tests.
# [5] = system: mesophilic aerobic microorganisms (AMR); details: mayonnaise
# From the text: as §1, §2
SMILES,Cell viability [1] [%],Cell viability [2] [%],day from which S. aureus develops ([3]; 4°C) [days],"S. aureus Title ([3]; 4°C, 6 days refrigeration) [CFU/gr]","S. aureus Title ([3]; 4°C, 13 days refrigeration) [CFU/gr]","S. aureus Title ([3]; 4°C, 27 days refrigeration)",S. aureus Title ([3]; Time 0) [CFU/gr],"Salmonella Title ([4]; 4°C, 6 days refrigeration) [CFU/gr]","Salmonella Title ([4]; 4°C, 13 days refrigeration) [CFU/gr]","Salmonella Title ([4]; 4°C, 20 days refrigeration) [CFU/gr]","Salmonella Title ([4]; 4°C, 27 days refrigeration) [CFU/gr]",Salmonella Title ([4]; Time 0) [CFU/gr],day of conservation from which AMR were detected ([5]; 4°C) [days],"AMR Title ([5]; 4°C, 6 days refrigeration) [CFU/gr]","AMR Title ([5]; 4°C, 13 days refrigeration) [CFU/gr]","AMR Title ([5]; 4°C, 20 days refrigeration)","AMR Title ([5]; 4°C, 27 days refrigeration)",AMR Title ([5]; Time 0) [CFU/gr]
CCCCCCCCCCCCOS(=O)(=O)[O-].[Na+] [SDS],3.94± 0.2,22.9,–,–,–,–,–,–,–,–,–,–,–,–,–,–,–,–
"O=C(O)CN(CCN(CC(=O)O)CC(=O)O)CC(=O)O [synthetic, EDTA]",–,–,20,0,0,1.15 x 10^4 CFU/gr,0,0,0,0,0,0,20,0,0,2x10^4 CFU/gr,1.25 x 10^5 CFU/gr,0
